This note sets out measurements from patent US20210236476A1, “METHODS OF TREATING CANCER WITH SMALL MOLECULE PD-L1 INHIBITORS” (CHEMOCENTRYX, INC., priority 2018, published 2021).

Each structure is given as a SMILES string. Entries after “also recorded” stand apart in the source; their conditions may differ.

The subject of one experiment is MDA-MB-231 cells. Kind of experiment: flow cytometry of PD-L1 surface staining with acid wash. As to conditions: FIG. 3. The format is cell-based, human. As to the method:
To further investigate the possibility that Compound 1.041 reduces PD-L1 surface expression, flow cytometry analysis was formed on MDA-MB-231 cells after PD-L1 surface staining. An acid-wash protocol (cells were washed 3 times (5 minutes with shaking) with cold acid wash buffer (DMEM containing 0.2% BSA and adjusted to a 3.5 pH) followed by 3 washes (5 minutes with shaking) with ice cold PBS 1X) was used to confirm that differences in PD-L1 cell surface staining was not due to tested article interfering with detection antibody binding.
On the technique in general: In flow cytometry, cells or beads pass a laser one at a time.

The target of experiment [1] is recombinant PD-L1 proteins (dimerization) (Homo sapiens, UniProt Q9NZQ7). Kind of experiment: dimerization ELISA assay. The following applies: FIG. 1B. In kind it is binding. As to the method: The activity of Compound 1.041 was assessed with an ELISA assay assessing the direct binding of recombinant PD-1 and PD-L1 proteins (FIG. 1A), a dimerization ELISA assay assessing the direct binding/dimerization of recombinant PD-L1 proteins (FIG. 1B), a cell based assay measuring the downstream signaling following the interaction of PD-1 and PD-L1 using a Luciferase reporter assay with cell lines overexpressing PD-1 and PD-L1 (FIG. 1C), and a mixed lymphocyte reaction assay measuring the functional outcome of upregulation of IFNg secretion, using allogenic primary human immune cells (FIG. 1D). Briefly, the mixed lymophocyte reaction assay was performed as follows: Dendritic cells and CD4+T Cells from unmatched donors were cultured together for 5 days in 96 well-flat bottom plates. Test compound was added as indicated at starting concentration of 1 μM with 1:4 dilutions with DMSO. Supernatants were harvested after 5 days of incubation and detection of human IFNg was performed by ELISA.
A general note: In an ELISA, binding on a coated surface is turned into a signal by an enzyme label.

For experiment [2], the system named is human T-cells in A375 tumors. In words: tumor microenvironment analysis by flow cytometry (therapeutic dosing study). The format is in vivo, NOD/SCID mice. The following applies: compared to vehicle. On the procedure:
The tumor microenvironement of vehicle and Compound 1.041 treatments from the above experiment were further explored by dissecting, mincing and digested with collagenase D the tumors from relevant mice for analysis by flow cytometry. Briefly, this assay was performed as follows: Excised tumors were finely chopped with a blade and digested for 60 minutes at 37° C. in MSS 1X containing 2mg/ml of collagenase D and 1U/ml of DNAse I. Single cells were washed and resuspended in FACS buffer (PBS 1X with 10% FBS and 0.1% azide) containing the following monoclonal antibodies (hCD4 in FITC, PD-L1 in PE, CD3 in PercP-Cy5.5, CD45 in PE-Cy7, PD-1 in APC, CD8a in APC-Cy7, CD69 in Pacific Blue and LIVE/DEAD fixable Aqua stain). Isotype-matched controls were used as negative controls. Flow cytometry data were acquired with a FACSCanto II (BD Biosciences, San Jose, Calif.) cytometer and analyzed using FlowJO. […] The flow cytometer was gated on live cells singlets, hCD45^+ and hCD3^+ cells.

The next experiment deals with human PBMCs. In words: T-Cell Exhaustion assay (SEB). In kind it is cell-based. As to conditions: human PBMCs stimulated with 100ng/mL SEB for three days; FIG. 2A.
Experiment [3] has as its system A375 human melanoma cells. In words: therapeutic dosing, A375 melanoma/PBMC co-implantation model. The format is in vivo, NOD/SCID mice. As to conditions: established A375 tumors co-injected with human PBMCs; Compound 1.041 30mg/kg bid, anti-hPD-L1 5 mg/kg i.p., from day 28. The source says:
(§1) Co-crystallized human PD-1/PD-L1 provided structural information from which we developed a number of small molecule checkpoint inhibitors. Active compounds were first profiled by an ELISA assay measuring inhibition of the PD-1/PD-L1 interaction, followed by functional cell-based reporter and mixed lymphocyte reaction (MLR) assays. PD-1/PD-L1 inhibitory compounds thus identified were further selected for in vivo model testing.
As briefly described in Example 1 the therapeutic activity of Compound 1.041 was tested using immunodeficient NOD/SCID mice (NOD.CB17-Prkdc^scid/NCrHsd) where A375 human melanoma cells were co-implanted along with human peripheral blood mononuclear cells (PBMCs). The mice were broken into 4 groups (n=7 each group): +PBMCs+Vehicle; +PBMCs+Compound 1.041; +PBMCs +Isotype antibody; and +PBMCs+anti-hPD-L1. Anti-hPD-L1 and isotype matched control antibody were injected i.p. at 5 mg/kg on day 28, 32, 36, 40, and 44. Compound 1.041 (30mg/kg) and vehicle dose (1% HPMC) p.i. twice daily (bid) starting on day 28.

In the next experiment the test system is hCD11C+hCD3- cells. In words: PD-L1 Surface Expression Assay (FACS). In kind it is cell-based, human. As to conditions: 16 hours, FIG. 2C. As to the method:
Briefly, this assay was performed as follows: Cells were seeded in 12 well plates. Test compounds or antibodies were added for 16 hours at different concentrations. Cells were washed and stained with anti-human PD-L1, anti-human CD11C and anti-human CD3 for 20 minutes at RT before performing FACS analysis. Matching isotype was used as a control.

The target of experiment [4] is T1, human PD-L1 / human PD-1 interaction (Homo sapiens, UniProt Q9NZQ7).
T1 construct: purchased R&D (PD-L1); ACRO Biosystems (PD-1, biotin)
Kind of experiment: ELISA of PD-1/PD-L1 interaction. In kind it is binding. As to conditions: FIG. 1, stated collectively for the assays. The gist of the method: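 Plates coated with 1 μg/mL human PD-L1 and blocked with BSA; serially diluted (1:5) compounds plus biotinylated human PD-1 (0.3 μg/mL) incubated 1 h at 37° C. Bound PD-1 detected with streptavidin-HRP/TMB, absorbance at 450 nm.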

For experiment [5], the system named is A375 human melanoma cells. Kind of experiment: prophylactic dosing, A375 melanoma/PBMC co-implantation model. In kind it is in vivo, NOD/SCID mice. As to conditions: Compound 1.041 30mg/kg bid, anti-hPD-L1 5 mg/kg i.p.
Description: as §1
As briefly described in Example 1, the prophylactic activity of Compound 1.041 was tested using immunodeficientp NOD/SCID mice (NOD.CB17-Prkdc^scid/NCrHsd) where A375 human melanoma cells were co-implanted along with human peripheral blood mononuclear cells (PBMCs). The mice were broken into 8 groups (n =10 each group): +/−PBMCs+Vehicle; +/−PBMCs+Compound 1.041; +/−PBMCs+Isotype antibody; and +/−PBMCs+anti-hPD-L1. Anti-hPD-L1 and isotype matched control antibody were injected i.p. at 5 mg/kg on day 1, 5, 9, 13, and 17. Compound 1.041 (30mg/kg) and vehicle dose (1% HPMC) p.i. twice daily (bid) starting on day 1.

T1 sequence (Q9NZQ7 19-239 limits assumed): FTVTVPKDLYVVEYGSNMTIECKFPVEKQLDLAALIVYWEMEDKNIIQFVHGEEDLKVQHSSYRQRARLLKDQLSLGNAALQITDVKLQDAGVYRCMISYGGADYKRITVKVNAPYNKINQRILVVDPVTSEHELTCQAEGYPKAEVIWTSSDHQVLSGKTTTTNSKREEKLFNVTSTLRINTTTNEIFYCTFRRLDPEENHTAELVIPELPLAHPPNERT
recombinant PD-L1 proteins (dimerization), sequence (Q9NZQ7 19-239 limits assumed): as above

Regarding `C[C@@](CO)(NCc1cc(Cl)c(O[C@H]2CCc3c(-c4cccc(OCCCN5CC(O)C5)c4Cl)cccc32)cc1OCc1cncc(C#N)c1)C(=O)O` [Compound 1.041, (S)-2-((5-chloro-4-(((S)-4(2-chloro-3-(3-(3-hydroxyazetidin-1-yl)propoxy)phenyl)-2,3-dihydro-1H-inden-1-yl)oxy)-2-((5-cyanopyridin-3-yl)methoxy)benzyl)amino)-3-hydroxy-2-methylpropanoic acid], the PD-L1 surface staining result in the experiment with MDA-MB-231 cells was “reduced PD-L1 surface staining intensive; also recorded: PD-L1 expression decreases”. Further, in experiment [1], the “induction of hPD-L1 dimerization” value is reported as “induction of hPD-L1 dimerization”. Also, in experiment [2] (human CD8+ T-cells from treated mice, FIG. 10), the “PD-1 expression (mean fluorescence intensity)” value was “reduction in PD-1 expression”. Besides, the “percentage of hCD8+ T-Cells in contrast to hCD4+ T-Cells” value in experiment [2] (tumors, FIG. 9A-B) is recorded as “increases the percentage of hCH8^+ T-cells relative to hCH4^+ T-cells”. Moreover, the “ratio of hCD8+/hCD4+ T-cells” value in experiment [2] (tumors, FIG. 9C) is listed as “significantly higher CD8^+ T-Cell/CD4^+ T-cell ratio”. Moreover, the “reversal of T cell exhaustion phenotype (IFN-g induction by SEB)” value with human PBMCs is listed as “reversed T cell exhaustion phenotype; also recorded: reverses T-Cell exhaustion phenotype”. In experiment [3], the relative tumor growth entry is “reduced tumor growth in vivo to a similar extent as the positive control anti-human PD-L1 antibody; also recorded: significant inhibitory effect”. Also, the PD-L1 surface expression entry with hCD11C+hCD3- cells is listed as “significantly reduced PD-L1 surface expression”. Besides, the “blocking of PD-1/PD-L1 interaction” value in experiment [4] was “highly potent and blocks PD-1/PD-L1 interaction”. For the same molecule, the tumor growth result is given as “reduced tumor growth in vivo to a similar extent as the positive control anti-human PD-L1 antibody; also recorded: inhibited tumor growth” in experiment [5] (A375 cells + co-injected hPBMCs, from day 1) and “no effect on A375 tumor growth” in experiment [5] (A375 cells alone (no hPBMCs)).
